Key:
HepG2 = assay: (§1) Cytotoxicity against human HepG2 cells assessed as cell viability at 100 uM after 48 hrs by MTT assay; type: cell-based; settings: hepg2, 48 h, 100 µM
Homo sapiens = organism: Homo sapiens; assay: Selectivity ratio of IC50 for human AChE to IC50 for human BuChE
PC-12 = assay: Cytotoxicity against rat PC12 cells assessed as cell viability at 100 uM after 48 hrs by MTT assay; type: cell-based; settings: pc-12, 48 h
Cholinesterase = Cholinesterase (Homo sapiens, UniProt P06276); assay: Inhibition of human BuChE using butyrylthiocholine iodide as substrate incubated for 20 mins prior to substrate addition measured for 1 hr by Ellman's method
Acetylcholinesterase = Acetylcholinesterase (Homo sapiens, UniProt P22303); assay: Inhibition of human AchE using acetylthiocholine iodide as substrate incubated for 20 mins prior to substrate addition measured for 1 hr by Ellman's method
[1] = as §1; type: cell-based; settings: HepG2 cells, read-out: Activity

Chain of Cholinesterase (P06276 whole entry): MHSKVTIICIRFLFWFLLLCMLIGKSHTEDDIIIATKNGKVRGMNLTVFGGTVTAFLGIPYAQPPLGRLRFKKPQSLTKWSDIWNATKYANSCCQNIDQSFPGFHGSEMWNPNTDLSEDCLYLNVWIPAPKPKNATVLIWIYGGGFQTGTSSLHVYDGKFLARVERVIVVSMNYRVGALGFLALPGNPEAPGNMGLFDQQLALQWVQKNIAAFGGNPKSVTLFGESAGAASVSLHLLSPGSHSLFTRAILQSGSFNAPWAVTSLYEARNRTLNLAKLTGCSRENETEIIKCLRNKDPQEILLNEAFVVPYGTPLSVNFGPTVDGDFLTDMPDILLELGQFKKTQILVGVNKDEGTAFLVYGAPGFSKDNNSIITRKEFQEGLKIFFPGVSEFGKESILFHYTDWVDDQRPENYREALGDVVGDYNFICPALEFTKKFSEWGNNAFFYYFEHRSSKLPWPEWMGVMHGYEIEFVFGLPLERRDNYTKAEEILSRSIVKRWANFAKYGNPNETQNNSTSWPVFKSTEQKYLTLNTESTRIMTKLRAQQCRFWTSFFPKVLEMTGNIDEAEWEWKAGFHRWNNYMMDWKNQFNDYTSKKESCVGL
Chain of Acetylcholinesterase (P22303 whole entry): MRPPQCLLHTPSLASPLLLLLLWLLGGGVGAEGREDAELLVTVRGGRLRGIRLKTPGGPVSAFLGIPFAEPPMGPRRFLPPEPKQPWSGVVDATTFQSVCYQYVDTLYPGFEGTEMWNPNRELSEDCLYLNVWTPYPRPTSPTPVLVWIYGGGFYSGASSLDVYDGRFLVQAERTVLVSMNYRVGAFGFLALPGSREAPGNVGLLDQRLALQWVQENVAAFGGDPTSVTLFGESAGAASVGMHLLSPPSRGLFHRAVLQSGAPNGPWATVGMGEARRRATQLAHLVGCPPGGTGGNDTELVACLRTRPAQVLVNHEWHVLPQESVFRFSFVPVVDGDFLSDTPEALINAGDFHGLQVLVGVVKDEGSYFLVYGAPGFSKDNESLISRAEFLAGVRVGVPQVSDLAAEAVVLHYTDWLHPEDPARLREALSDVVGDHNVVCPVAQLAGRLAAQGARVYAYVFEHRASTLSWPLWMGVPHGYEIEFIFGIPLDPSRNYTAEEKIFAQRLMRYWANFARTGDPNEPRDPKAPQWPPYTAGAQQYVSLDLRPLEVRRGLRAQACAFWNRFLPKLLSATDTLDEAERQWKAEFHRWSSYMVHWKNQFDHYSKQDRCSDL

Structure (SMILES) | Activity (HepG2) | Ratio IC50 (Homo sapiens) | Activity (PC-12) | IC50 (Cholinesterase) | IC50 (Acetylcholinesterase) | viability at 48 h, 100 µM [1]
CC1CCCCN1c1nc2ccccc2[nH]1 (configuration not stated) | Non-toxic | 43.8 | Non-toxic | 2.03 µM | 88.9 µM | –
CCCCNc1nc2ccccc2[nH]1 | – | – | – | 61 µM | > 100 µM | 85.2%
c1ccc2c(c1)CCCN2c1nc2ccccc2[nH]1 | Non-toxic | – | Non-toxic | > 100 µM | > 100 µM | –
CCCCN(C)c1nc2ccccc2[nH]1 | Non-toxic | – | Non-toxic | > 100 µM | > 100 µM | –
CCCCNc1nc2ccccc2n1C | Non-toxic | – | Non-toxic | > 100 µM | > 100 µM | –
c1ccc2[nH]c(NC34CC5CC(CC(C5)C3)C4)nc2c1 | Non-toxic | – | Non-toxic | > 100 µM | > 100 µM | –
COCCNc1nc2ccccc2[nH]1 | Non-toxic | – | Non-toxic | > 100 µM | > 100 µM | –
c1ccc2[nH]c(N3CCCCC3)nc2c1 | Non-toxic | 37.7 | Non-toxic | 1.57 µM | 59.2 µM | –
c1ccc(CCCNc2nc3ccccc3[nH]2)cc1 | Non-toxic | – | Non-toxic | > 100 µM | > 100 µM | –
c1ccc(Nc2nc3ccccc3[nH]2)nc1 | Non-toxic | – | Non-toxic | > 100 µM | > 100 µM | –
CN(C)CCCN(c1nc2ccccc2[nH]1)c1nc2ccccc2[nH]1 | Non-toxic | 26.4 | Non-toxic | 2.26 µM | 59.7 µM | –
CC(C)(C)OC(=O)NCCNc1nc2ccccc2[nH]1 | Non-toxic | – | Non-toxic | 71.9 µM | > 100 µM | –
NCCNc1nc2ccccc2[nH]1 | Non-toxic | – | Non-toxic | > 100 µM | > 100 µM | –
CCCCN(C)c1nc2ccccc2n1C | Non-toxic | – | Non-toxic | > 100 µM | > 100 µM | –
CCN(CC)CCCNc1nc2ccccc2[nH]1 | Non-toxic | – | Non-toxic | > 100 µM | > 100 µM | –

— ChEMBL document CHEMBL2396588, “Synthesis, biological evaluation and molecular modeling of substituted 2-aminobenzimidazoles as novel inhibitors of acetylcholinesterase and butyrylcholinesterase” (Bioorg Med Chem, 2013)
